Laboratory results as given in patent US9193731B2, “Antimicrobial compounds and methods of making and using the same” (Melinta Therapeutics, Inc., priority 2009, dated 2015).

test system: Escherichia coli strain ATCC25922; experiment: standard microdilution assay to determine minimum inhibitory concentrations (MICs); assay type: cell-based; settings: Escherichia coli strain ATCC25922, microdilution
How it was run: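 Broth microdilution MIC against E. coli ATCC25922, following CLSI protocols, typically in a 100 microliter final volume. Results reported as +/− relative to a 16 micrograms/ml cutoff.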

SMILES | E. coli ATCC25922 MIC
CS(=O)(=O)Cc1cc(CCCCN)cc(-c2cc3cn(-c4ccc(CNCCCNC(=N)N)cc4)c(=O)nc3[nH]2)c1 [Compound 2088a] | + (a “+” indicates that the compound has an MIC value of 16 micrograms/ml or less)
N=C(N)NCCCNCc1ccc(-n2cc3cc(-c4cccc(OCC5(CN)CCC5)c4)[nH]c3nc2=O)cc1 [Compound 1434] | + (a “+” indicates that the compound has an MIC value of 16 micrograms/ml or less)
NCc1ccc(-n2cc3cc(-c4ccc(S(=O)(=O)N(Cc5ccc6nonc6c5)C5CCNCC5)cc4)[nH]c3nc2=O)cc1 [Compound 961] | − (a “−” indicates that the compound has an MIC value greater than 16 micrograms/ml)
N=C(N)NOCCNC(=O)c1ccc(-n2cc3cc(-c4ccc(S(=O)(=O)NC5CCNCC5)cc4)[nH]c3nc2=O)cc1 [Compound 1137] | − (a “−” indicates that the compound has an MIC value greater than 16 micrograms/ml)
N=C(N)NCCCNCc1ccc(-n2cc3cc(-c4ccc(NC(=O)CNC5CCNCC5)cc4)[nH]c3nc2=O)cc1 [Compound 1290] | + (a “+” indicates that the compound has an MIC value of 16 micrograms/ml or less)
CC(CN)CN1CCC(c2cc3cn(-c4ccc(CNCCCNC(=N)N)cc4)c(=O)nc3[nH]2)C1 (centres unmarked) [Compound 2040a] | + (a “+” indicates that the compound has an MIC value of 16 micrograms/ml or less)
N=C(N)NCCCNCc1ccc(-n2cc3cc(C4CCN(CCCCN)C4)[nH]c3nc2=O)cc1 (centres unmarked) [Compound 1437] | + (a “+” indicates that the compound has an MIC value of 16 micrograms/ml or less)
N=C(N)NCCCNC(=O)Cn1cc2cc(-c3ccc(S(=O)(=O)NC4CCNCC4)cc3)[nH]c2nc1=O [Compound 1289] | − (a “−” indicates that the compound has an MIC value greater than 16 micrograms/ml)
N=C(N)NCCCNCc1ccc(-n2cc3cc(-c4cc(C(=O)NCCc5cccc(F)c5)cc(N5CCNCC5)c4)[nH]c3nc2=O)cc1 [Compound 1068] | + (a “+” indicates that the compound has an MIC value of 16 micrograms/ml or less)
N=C(N)NCCCNCc1ccc(-n2cc3cc(-c4ccc(S(=O)(=O)N(CC5CCOCC5)C5CCCNC5)cc4)[nH]c3nc2=O)cc1 (single isomer, unassigned) [Compound 844] | + (a “+” indicates that the compound has an MIC value of 16 micrograms/ml or less)
COc1ccc(CCN(C2CCNCC2)S(=O)(=O)c2cccc(-c3cc4cn(-c5ccc(CNCCCN=C(N)N)cc5)c(=O)nc4[nH]3)c2)cc1 [Compound 1226] | + (a “+” indicates that the compound has an MIC value of 16 micrograms/ml or less)
COc1cc(-n2cc3cc(-c4cccc(OCCCN)c4)[nH]c3nc2=O)ccc1CNCCCNC(=N)N [Compound 1273] | + (a “+” indicates that the compound has an MIC value of 16 micrograms/ml or less)
N=C(N)NCCCNCc1ccc(-n2cc3cc(-c4ccc(C(=O)NC5CNC5)cc4)[nH]c3nc2=O)cc1 [Compound 1412] | + (a “+” indicates that the compound has an MIC value of 16 micrograms/ml or less)
CC(=O)NCc1ccc(-n2cc3cc(-c4cccc(CCCN)c4)[nH]c3nc2=O)cc1 [Compound 2063a] | − (a “−” indicates that the compound has an MIC value greater than 16 micrograms/ml)
N=C(N)N[C@@H]1CCCN(Cc2ccc(-n3cc4cc(-c5ccc(S(=O)(=O)N(Cc6ccncc6)C6CCNCC6)cc5)[nH]c4nc3=O)cc2)C1 [Compound 1177] | − (a “−” indicates that the compound has an MIC value greater than 16 micrograms/ml)
CC(CCN)c1cc(-c2cc3cn(-c4ccc(CNCCCNC(=N)N)cc4)c(=O)nc3[nH]2)ccc1Cl (centres unmarked) [Compound 2093a] | + (a “+” indicates that the compound has an MIC value of 16 micrograms/ml or less)
N=C(N)NCCCNCc1ccc(-n2cc3cc(C4CCN(CC5CNC(=O)O5)C4)[nH]c3nc2=O)cc1 (centres unmarked) [Compound 1457] | − (a “−” indicates that the compound has an MIC value greater than 16 micrograms/ml)
N=C(N)NCCCNC(=O)c1ccc(-n2cc3cc(-c4ccc(S(=O)(=O)CCCNC5CCNC5)cc4)[nH]c3nc2=O)cc1 (centres unmarked) [Compound 1350] | + (a “+” indicates that the compound has an MIC value of 16 micrograms/ml or less)
N=C(N)NCCCNCc1ccc(-n2cc3cc(-c4cc(OCC(F)CN)cc(-c5cccnc5)c4)[nH]c3nc2=O)cc1 (centres unmarked) [Compound 2001a] | − (a “−” indicates that the compound has an MIC value greater than 16 micrograms/ml)
NCCCNCc1ccc(-n2cc3cc(-c4cc(C(=O)N5CCS(=O)(=O)CC5)cc(N5CCNCC5)c4)[nH]c3nc2=O)cc1 [Compound 874] | − (a “−” indicates that the compound has an MIC value greater than 16 micrograms/ml)

same assay, conditions: Escherichia coli, ATCC25922, Escherichia coli strain ATCC25922, microdilution; read-out: E. coli ATCC25922 MIC

MIC | SMILES
> 16 µg/mL | CNCc1ccc(-n2cc3cc(-c4ccc(S(=O)(=O)N(CCCN5CCCCC5C)C5CCNCC5)cc4)[nH]c3nc2=O)cc1 (centres unmarked) [Compound 1039]
< 16 µg/mL | N=C(N)NCCCNC(=O)c1ccc(-n2cc3cc(C4CCCN(C(=N)N)C4)[nH]c3nc2=O)cc1 (centres unmarked) [Compound 1256]
> 16 µg/mL | CN(C)Cc1cc2cn(-c3ccc(CNCCCN)cc3)c(=O)nc2[nH]1 [Compound 884]
< 16 µg/mL | CNCCCOc1cccc(-c2cc3cn(-c4ccc(CNCCCNC(=N)N)cc4)c(=O)nc3[nH]2)c1 [Compound 1221]
> 16 µg/mL | NCc1ccc(-n2cc3cc(-c4ccc(S(=O)(=O)N(CCCC5CCCO5)C5CCNCC5)cc4)[nH]c3nc2=O)cc1 (centres unmarked) [Compound 1066]
> 16 µg/mL | CNCc1ccc(-n2cc3cc(-c4ccc(S(=O)(=O)N(CCCN5CCOCC5)C5CCNCC5)cc4)[nH]c3nc2=O)cc1 [Compound 1037]
< 16 µg/mL | N=C(N)NCCCNCc1ccc(-n2cc3cc(CCS(=O)(=O)NC4CCNCC4)[nH]c3nc2=O)cc1 [Compound 926]
< 16 µg/mL | CN(C)C1CCN(c2cccc(-c3cc4cn(-c5ccc(CNCCCN)cc5)c(=O)nc4[nH]3)c2)CC1 [Compound 665]
> 16 µg/mL | NCc1ccc(-n2cc3cc(-c4cccc(CCN5CCNCC5)c4)[nH]c3nc2=O)cc1 [Compound 1200]
< 16 µg/mL | N=C(N)NCCCNCc1ccc(-c2cn3cc(-c4ccc(C(=O)N5CCN(CCO)CC5)cc4)[nH]c3nc2=O)cc1 [Compound 713]
> 16 µg/mL | NCc1ccc(-n2cc3cc(-c4cccc(OCCOc5ccc(Cl)cc5)c4)[nH]c3nc2=O)cc1 [Compound 1127]
< 16 µg/mL | NCCCN(CCCN)Cc1ccc(-n2cc3cc(-c4ccc(S(=O)(=O)N5CCN6CCC5CC6)c(F)c4)[nH]c3nc2=O)cc1 [Compound 231]
> 16 µg/mL | NCCCNCc1ccc(-n2cc3cc(-c4ccc([C@H]5OC(=O)N[C@@H]5CO)cc4)[nH]c3nc2=O)cc1 [Compound 939]
< 16 µg/mL | N=C(N)NCCCNCc1ccc(-n2cc3cc(-c4cccc(NCC(=O)N5CCNCC5)c4)[nH]c3nc2=O)cc1 [Compound 645]
< 16 µg/mL | CN(CCO)C(=O)c1ccc(-c2cn3cc(-c4ccc(CNCCCNC(=N)N)cc4)c(=O)nc3[nH]2)cc1 [Compound 720]
> 16 µg/mL | N=C(N)NCCCNCc1ccc(-c2cn3cc(-c4ccc(C(=O)N5CCC(O)C5)cc4)[nH]c3nc2=O)cc1 (centres unmarked) [Compound 653]
< 16 µg/mL | N=C(N)NCCCNC(=O)c1ccc(-n2cc3cc(-c4cc(CCCCN)cc(C(F)(F)F)c4)[nH]c3nc2=O)cc1 [Compound 2034a]

SMILES | MIC
NCCCNCc1ccc(-c2cn3cc(-c4ccc(C5=CCNCC5)cc4)[nH]c3nc2=O)cc1 [Compound 649] | < 16 µg/mL
